Earlier results on one compound are cited in patent US20030054020A1, “Method and composition for reducing sebum secretion in mammals” (priority 2001, published 2003).

This data set deals with human sebaceous glands.

Take `CC1=C(/C=C/C(C)=C/C=C/C(C)=C\C(=O)O)C(C)(C)CCC1` [13-cis-retinoic acid]: the “Reduction of the size of human sebaceous glands” value was “up to 90%”.
